The source of these data is US8183001B2 (priority 2006, dated 2012).

Like-named read-outs stand apart in the source and are kept apart here.

For experiment [1], the target named is T1, UNC-49B homomer (GABA receptor) (Caenorhabditis elegans, UniProt G5ECD3).
T1 construct: homopentamer; two-electrode voltage clamp
Kind of experiment: Pentobarbital enhancement of UNC-49B homomer (FIG. 14B, allosteric regulation of UNC-49). It counts as cell-based. As to the method:
(§1) Like their mammalian homologs, UNC-49 subunits contain a large extracellular amino terminal region, and four transmembrane domains labeled M1-M4.
(§2) Electrophysiology: Plasmids containing wild-type and mutagenized GABAA receptor subunits were linearized and transcribed in vitro using T3 RNA polymerase (mMessage mMachine T3 kit, Ambion, Austin Tex.). UNC-49B mRNA was injected into Xenopus laevis oocytes at 0.5 μg/μl either alone, or in a mixture with 0.5 μg/μl UNC-49C. […] The injection volume ranged between 27.6 nl to 50.6 nl. […] Cells were voltage clamped at −60 mV. All recordings were performed at room temperature.

A further experiment relates to B-β3 chimera. The experiment in a line: Pregnanolone response of B-β3 chimera. It counts as cell-based. From the text:
A) Structure of the B-β3 chimera. B) The B-β3 chimera is enhanced by pregnanolone.

For experiment [2], the target named is T2, UNC-49B homomer (Caenorhabditis elegans, UniProt G5ECD3). The format is cell-based, C. elegans. As to the method:
as §2

Experiment [3] deals with T2, UNC-49B homomer. The note with it: UNC-49B homomers; Bamber et al., 2003; cited from earlier work.
Experiment [4] addresses T3, UNC-49B/C heteromer (Caenorhabditis elegans, UniProt G5ECD3+G5EE10). The following applies: UNC-49B/C heteromers; Bamber et al., 2003; cited from earlier work.
The subject of experiment [5] is mammalian GABAA receptor with α1 subunit XY segment replaced with UNC-49B XY sequence. The experiment in a line: Neurosteroid positive modulation, subunits expressed in Xenopus oocytes. The format is cell-based. The following applies: altered receptor compared to the wild-type receptor. The method, then:
It has been shown that one variant of the XY segment conferred high PS sensitivity (the UNC-49C sequence) (Example 1), while another variant of the XY segment conferred low PS sensitivity (the UNC-49B sequence). Subunits of mammalian GABAA receptors also contain an XY segment. It was tested whether neurosteroid sensitivity of mammalian receptors similarly depended on their XY segments. The mammalian XY segment (within the α1 subunit) was replaced with the low-sensitivity UNC-49B XY sequence variant. […] Both positive and negative modulation of GABAA receptors are therapeutically beneficial.

Experiment [6] deals with T4, UNC-49B/C heteromer (GABA receptor) (Caenorhabditis elegans, UniProt G5ECD3+G5EE10).
T4 construct: two-electrode voltage clamp
The experiment in a line: Picrotoxin inhibition of GABA-evoked currents, UNC-49B/C heteromer (FIG. 14A; two-electrode voltage clamp, Xenopus oocytes). The format is cell-based. The following applies: co-application of GABA and picrotoxin. As to the method:
as §1, §2
Background: In two-electrode clamp one electrode senses voltage and the other passes current.

In experiment [7] the target is T1, UNC-49B homomer (GABA receptor). Kind of experiment: Picrotoxin inhibition of GABA-evoked currents, UNC-49B homomer (FIG. 14A; two-electrode voltage clamp, Xenopus oocytes). The following applies: co-application of GABA and picrotoxin. It counts as cell-based. The method, then:
as §1, §2

Experiment [8] concerns the target T3, UNC-49B/C heteromer. The format is cell-based. The following applies: UNC-49B/C heteromers. As to the method: as §2
The test system of another experiment is UNC-49B-PS7. It counts as cell-based, C. elegans. The following applies: UNC-49B-PS7 versus UNC-49B/C heteromer; at EC50 GABA. The method, then:
as §2

The next experiment has as its target Y chimera (Caenorhabditis elegans, UniProt G5ECD3, I265S/I267V/I270L/N259Q/N305R/T269V/V261F/V273I). The format is cell-based, C. elegans. The note with it: Y chimera compared with wild-type UNC-49B and QF-R subunit; at EC50 GABA. As to the method:
as §2

The target in a further experiment is QF-R (Caenorhabditis elegans, UniProt G5ECD3, N259Q/N305R/V261F). It counts as cell-based, C. elegans. The following applies: QF-R subunit compared with wild-type UNC-49B and Y chimera; at EC50 GABA. As to the method:
as §2
The conserved residues were tested in the UNC-49C M1 domain in a similar way. […] To test the importance of these conserved residues, they were substituted into an UNC-49B subunit with the linker mutation N305R to create the ‘QF-R’ subunit (FIG. 3c).

T2 sequence (G5ECD3 entry or part of it): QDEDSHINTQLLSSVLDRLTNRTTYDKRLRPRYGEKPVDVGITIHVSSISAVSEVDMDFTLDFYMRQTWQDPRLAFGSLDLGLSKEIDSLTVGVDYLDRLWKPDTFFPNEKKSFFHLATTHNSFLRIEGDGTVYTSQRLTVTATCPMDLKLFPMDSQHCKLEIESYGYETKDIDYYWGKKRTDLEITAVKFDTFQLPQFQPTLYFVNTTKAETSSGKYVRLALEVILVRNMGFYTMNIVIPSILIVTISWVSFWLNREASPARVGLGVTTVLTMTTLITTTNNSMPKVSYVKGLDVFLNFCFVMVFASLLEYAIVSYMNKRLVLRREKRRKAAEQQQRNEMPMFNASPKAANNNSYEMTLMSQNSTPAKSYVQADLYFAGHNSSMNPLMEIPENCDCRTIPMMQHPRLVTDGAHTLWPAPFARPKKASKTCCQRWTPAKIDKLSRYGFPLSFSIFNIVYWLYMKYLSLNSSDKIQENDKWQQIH
T1 sequence (G5ECD3 23-506): as the sequence (G5ECD3 entry or part of it) above
T3 sequence (G5EE10 entry or part of it): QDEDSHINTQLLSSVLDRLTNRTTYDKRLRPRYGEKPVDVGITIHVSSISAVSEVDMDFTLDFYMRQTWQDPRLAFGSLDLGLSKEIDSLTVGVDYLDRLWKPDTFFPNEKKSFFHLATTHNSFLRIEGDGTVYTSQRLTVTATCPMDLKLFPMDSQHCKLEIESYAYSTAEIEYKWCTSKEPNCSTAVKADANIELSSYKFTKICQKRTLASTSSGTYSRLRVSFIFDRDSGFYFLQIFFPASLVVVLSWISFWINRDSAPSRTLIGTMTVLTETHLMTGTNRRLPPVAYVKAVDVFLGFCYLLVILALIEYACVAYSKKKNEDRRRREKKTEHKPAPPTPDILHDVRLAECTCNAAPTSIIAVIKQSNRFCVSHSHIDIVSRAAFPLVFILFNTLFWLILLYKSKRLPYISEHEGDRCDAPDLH
T3 sequence (G5ECD3 entry or part of it): as the sequence (G5ECD3 entry or part of it) above
Y chimera, sequence (G5ECD3 23-506, stated change not applied): as the sequence (G5ECD3 entry or part of it) above
T4 sequence (G5ECD3 23-506): as the sequence (G5ECD3 entry or part of it) above
T4 sequence (G5EE10 entry or part of it): as the sequence (G5ECD3 entry or part of it) above
QF-R, sequence (G5ECD3 23-506, stated change not applied): as the sequence (G5ECD3 entry or part of it) above

Regarding `CCCC(C)C1(CC)C(=O)NC(=O)NC1=O` (centres unmarked) [PB, pentobarbital], the EC50 (commonly the concentration that produces a half-maximal response) in experiment [1] came out at 369 ± 23.1 µM.

For `CC(=O)[C@H]1CC[C@H]2[C@@H]3CC[C@@H]4C[C@H](O)CC[C@]4(C)[C@H]3CC[C@]12C` [pregnanolone], the “direct activation by pregnanolone” value with B-β3 chimera is given as “directly activated”; at UNC-49B homomer [2] (UNC-49B homomer), “fails to directly activate”. The pregnanolone modulation entry in the experiment with B-β3 chimera is recorded as “enhanced”; on UNC-49B homomer [2] (UNC-49B homomer), “inhibits, rather than enhances”; at UNC-49B homomer [3] it was “inhibited”; on UNC-49B/C heteromer [4], “inhibited”.

As for `C[C@]12CC[C@@H](O)C[C@@H]1CC[C@@H]1[C@@H]2CC[C@]2(C)[C@@H](C(=O)CO)CC[C@@H]12` [5α-3α-THDOC], the “positive modulation by neurosteroid” value in [5] is on record as “greatly-reduced positive modulation”.

Consider picrotoxin [listing 1 of 2 here], for which the values for the IC50 in [6] and in experiment [7] were 166 ± 42 µM and 0.89 ± 0.15 µM, respectively.

Consider `CCCC(C)C1(CC)C(=O)NC(=O)NC1=O` (centres unmarked) [Pentobarbital], for which the pentobarbital enhancement result on UNC-49B homomer [2] was “more strongly than UNC-49B/C heteromers”.

Turning to picrotoxin [listing 2 of 2 here], the picrotoxin inhibition result on UNC-49B/C heteromer [8] was “only weakly inhibits”; at UNC-49B homomer [2] (UNC-49B homomers), “strongly inhibits”. Also, the “fold difference in picrotoxin sensitivity” value in the experiment with UNC-49B-PS7 was found to be 50 fold. In addition, the picrotoxin sensitivity entry at Y chimera is “identical”; at UNC-49B homomer [2] (wild-type UNC-49B compared with QF-R subunit and Y chimera (UNC-49B curve from Bamber et al. 2003)) it was “identical”; on QF-R, “identical”.
